Values of other authors in PubChem BioAssay AID1259409 (Chemical Carcinogenesis Research Information System (CCRIS), 2018).

Test system: rodent chemically induced tumor inhibition, incidence and multiplicity
Assay: CCRIS tumor inhibitor studies
Details: Carcinogen: 7,12-DIMETHYLBENZ[A]ANTHRACENE, 57-97-6, Route [Inhibitor]: DERMAL, Species: MOUSE, Strain/Sex: CD-1/FEMALE, Target Tissue: Type of Lesion: SKIN: PAPILLOMA, Dose [Carcinogen]: 20 NMOL IN 200 µL ACETONE ONCE

In the case of `CC1=C[C@H]2[C@@]3(O)[C@H](C)C[C@]4(OC(=O)Cc5ccccc5)C([C@@H]3C=C(CO)C[C@]2(O)C1=O)C4(C)C` (some centres not stated), the “tumour outcome (control, treated, inhibition, significance)” value (Dose [Inhibitor]: 0, 2.14 NMOL 15 D POST INITIATION DOSE FOLLOWED BY 2.14 NMOL 2/WK DURING WK 3-22 APPLIED 15 MIN PRIOR TO EACH PROMOTION) is given as 100%, 82%, 18%, not calculated, the “tumour outcome (control, treated, inhibition, significance)” value (Dose [Inhibitor]: 0, 2.14 NMOL 15 D POST INITIATION DOSE FOLLOWED BY 2.14 PMOL 2/WK DURING WK 3-22 APPLIED 15 MIN PRIOR TO EACH PROMOTION) is given as 100%, 97%, 3%, not calculated and the “tumour outcome (control, treated, inhibition, significance)” value (Dose [Inhibitor]: 0, 2.14 NMOL 15 D POST INITIATION DOSE FOLLOWED BY 21.4 NMOL 2/WK DURING WK 3-22 APPLIED 15 MIN PRIOR TO EACH PROMOTION) is given as 100%, 53%, 47%, not calculated. For the same compound, the “tumour outcome (control, treated, inhibition, significance)” value (Dose [Inhibitor]: 0, 2.14 NMOL 15 D POST INITIATION DOSE FOLLOWED BY 21.4 PMOL 2/WK DURING WK 3-22 APPLIED 15 MIN PRIOR TO EACH PROMOTION) was 100%, 100%, 0%, not significant, the “tumour outcome (control, treated, inhibition, significance)” value (Dose [Inhibitor]: 0, 2.14 NMOL 15 D POST INITIATION DOSE FOLLOWED BY 214 PMOL 2/WK DURING WK 3-22 APPLIED 15 MIN PRIOR TO EACH PROMOTION D) was 100%, 95%, 5%, not calculated and the “tumour outcome (control, treated, inhibition, significance)” value (Dose [Inhibitor]: 2.14 NMOL BEGINNING 15 D POST INITIATION DOSE AND EVERY THURS. AS WELL AS 21.4 NMOL 15 MIN PRIOR TO EACH PROMOTION DOSE) was 100%, 65%, 35%, not calculated. For the same compound, the “tumour outcome (control, treated, inhibition, significance)” value (Dose [Inhibitor]: 2.14 NMOL BEGINNING 15 D POST INITIATION DOSE AND EVERY WED. AS WELL AS 21.4 NMOL 15 MIN PRIOR TO PROMOTION DOSE ON FRI.) was 98%, 50%, 49%, not calculated.
